Laboratory results taken from patent US7662767B2, “Polynucleotide intercalator interceptors and inhibitors” (Materials Evolution and Development USA, Inc., priority 2000, dated 2010).
Read-outs that look alike come from different tables or passages of the source.

Assays:
herring sperm dsDNA = assay: Acridine orange titrated with dsDNA, absorbance; format: binding; conditions: AO-DNA
From the text: Experiments were undertaken to characterize the interaction of AO with DNA over a range of DNA base pairs (bp) to AO ratios in the absence of, and in the presence of, a physiological concentration of NaCl. […] The example shown in FIG. 3-6 is a dsDNA bp: AO ratio of selected spectra denoting important transitions within the titration series are denoted with bolder lines. Some of the spectral series is not shown to simplify the data presentation. At bp: AO ratios between 0.0 and 0.75, prevalent peaks occur at 8abs of 468 nm and 492 nm. […] The absorbance spectra from bp: AO ratios above 0.75 denote a definitive red-shift in absorbance with the simultaneous creation of two distinct peaks, one at 475 nm and the other at 503 nm. With continued additions of aliquots of DNA, the absorbance peak near 468 nm is still apparent while the initial main absorbance peak at 492 nm is minimally detectable. […] Additionally, at bp:AO ratios of about 1.72. The absorbance peak near λabs 503 nm increased in amplitude with each additional aliquot of DNA. […] The association constant was calculated from a plot of delta absorbance values at 504 nm versus DNA concentration (see inset FIG. 3-7). The DNA concentrations ranged from 30:M to 170:M.

[1] = tested on: chicken erythrocyte nuclear chromatin; assay: Acridine orange staining of chicken erythrocyte nuclear chromatin, fluorescence microscopy; format: binding
Description: Chicken erythrocytes were chosen as one implementation of this invention. These nucleated cells have mature erythrocytes with no RNA. Blood was taken from a mature chicken. The blood was drawn from a wing vein into 50 ml glass heparin containing tubes to prevent clotting. This blood was used to make smears on microscope slides. These blood smeared slides were allowed to dry at room temperature and were stored in microscope boxes.
Solutions of AO were prepared at 5 mM and 10 μM concentrations in distilled water. Microscope slides smeared with chicken erythrocytes were stained by placing the slide into a glass slide holder containing 50 ml of AO solution under static conditions from 2 min to 30 min, followed by three 10 second rinses in distilled water before drying at room temperature. […] Processed slides were stored in the dark then read and photomicrographs taken (Zeiss Model 63 Microscope, 1600 ASA Kodak film) soon after removal from the dark to avoid photobleaching.
In the example shown in Table 4-1, the chicken erythrocytes were smeared and dried on a microscope slide prior to exposure to two different concentrations of AO (10 μM and 5 mM), rinsed with distilled water, and allowed to dry. Erythrocytes were examined with fluorescence microscopy and the color of the nuclei recorded. […]

[2] = AO-CAF complex, spectrofluorometry λex 485 nm / λem 530 nm; format: binding; conditions: AO [2 μM], CAF [1-20 μM]
Description: Spectrofluorometric analysis was performed at an AO concentration of 2 μM to determine the effect of CAF and a physiological concentration of NaCl on the fluorescence spectra of AO. CAF was added over a series of CAF:AO molecular ratios ranging from 2500:1 to 0.5:1 and the fluorescence intensity determined at λem 530 nm and 635 nm. The fluorescence intensity was again determined following the addition of NaCl to a final concentration 150 mM and pH 7.0 to each test well containing both AO and CAF.
The data in FIG. 3-5A depicts the mean fluorescence values at λem 530 nm of 2 μM AO with CAF in the absence of, and in the presence of, 150 mM NaCl over a range of CAF to AO molecular ratios from 0.5 to 10.0 (1 μM to 20 μM CAF). The example shown in FIG. 3-5A is a plot of fluorescence intensity of AO excited at λex 485 nm and monitored at λem 530 nm versus CAF concentration to show the effect of CAF and NaCl on the fluorescence of AO and the formation of the AO-CAF complex. Solutions of 2 μM AO were analyzed using spectrofluorometric techniques in the presence of various concentrations of CAF with and without addition of NaCl [150 mM]. […] However at the CAF concentration of 5 mM (molecular ratio 2,500:1) there was a significant change in the mean fluorescence intensity with the value going from 1,245±53 for CAF and AO alone to 1,150±34 with the addition of 150 mM NaCl. […]

[3] = AO-CAF, cited from earlier work
[4] = Absorbance binding spectra of doxorubicin titrated with caffeine or chlorophyllin; conditions: 10 μM doxorubicin
[5] = tested on: chicken erythrocyte nuclear chromatin; assay: Removal of acridine orange from stained chicken erythrocyte nuclear chromatin by xanthine rinse, fluorescence microscopy; conditions: slides stained with 10 mM AO; rinse with 50 mM for 10 minutes

Compound	K ± S.D. (herring sperm dsDNA; Absorbance (504 nm), AO [3 μM], DNA [5-170 μM], hydrochloride)	K ± S.D. (herring sperm dsDNA; Absorbance (504 nm), AO [3 μM], DNA [5-170 μM], listed as AO-DNA, hydrochloride)	K ± S.D. (herring sperm dsDNA; Absorbance, AO [0.1-3 μM], DNA [100 μM])	K ± S.D. (herring sperm dsDNA; Absorbance, AO [0.8-3.4 μM], DNA [20 μM])	Fluorescent Color ([1]; AO 10 μM)	Fluorescent Color ([1]; AO 5 mM)	K ± S.D. ([2]; Fluorescence plus NaCl 150 mM)	K ± S.D. ([2]; Fluorescence, absence of NaCl)	K ± S.D. ([3]; Absorbance plus NaCl 150 mM, AO [20 μM], CAF [1-2000 μM], Kapuscinski & Kimmel, 1993)	K ± S.D. ([3]; Absorbance, AO [10 μM], CAF [1-5000 μM], Larsen et al., 1996)	K ± S.D. ([3]; Absorbance, AO [20 μM], CAF [1-2000 μM], Kapuscinski & Kimmel, 1993)	binding to doxorubicin [4]	fluorescence intensity after rinse [5]
CN(C)c1ccc2cc3ccc(N(C)C)cc3nc2c1.Cl [AO, 3,6-bis[dimethylamino]acridine hydrochloride]	37,660±431 M^−1	37,660 ± 431 M^−1	33,510 ± 285 M^−1	31,960 ± 316 M^−1	Green	Red							
Cn1c(=O)c2c(ncn2C)n(C)c1=O [1,3,7-trimethyl xanthine (caffeine), 1,3,7-trimethyl xanthine]							216 ± 20 M⁻¹	254 ± 27 M⁻¹	169 ± 9 M⁻¹	258 ± 5 M⁻¹	258 ± 7 M⁻¹	binds with doxorubicin	reduced the fluorescence intensity to background level
